This passage reports IC50 results from patent US9290459B1, “Substituted bicyclic dihydropyrimidinones and their use as inhibitors of neutrophil elastase activity” (Boehringer Ingelheim International GmbH, priority 2013, dated 2016).

pIC50: −log10 of the molar value.

The target in the assay is Human neutrophil elastase (Homo sapiens (Human), UniProt P08246). The experiment in a line: Human Neutrophil Elastase Assay. In kind it is biochemical. Conditions: human neutrophil elastase, substrate MeOSuc-Ala-Ala-Pro-Val-AMC 250 μM, pH 7.5; read-out: IC50.
Human neutrophil elastase, sequence (P08246 30-247): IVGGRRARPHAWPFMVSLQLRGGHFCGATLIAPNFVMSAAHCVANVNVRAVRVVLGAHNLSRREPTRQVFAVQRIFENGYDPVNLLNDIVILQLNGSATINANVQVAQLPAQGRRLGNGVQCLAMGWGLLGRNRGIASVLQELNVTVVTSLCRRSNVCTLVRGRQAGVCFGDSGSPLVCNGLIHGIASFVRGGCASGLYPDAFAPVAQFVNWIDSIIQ
In the case of `N#Cc1ccc(C2NC(=O)N(c3cccc(C(F)(F)F)c3)C3=C2C(=O)CC3)nc1` (stereo not drawn) [Example 15.3, 6-(2,5-dioxo-1-(3-(trifluoromethyl)phenyl)-2,3,4,5,6,7-hexahydro-1H-cyclopenta[d]pyrimidin-4-yl)nicotinonitrile], the pIC50 (usually the negative decadic logarithm of the IC50, by convention in mol/L) is 6.97. Consider `N#Cc1ccc([C@H]2NC(=O)N(c3cccc(C(F)(F)F)c3)C3=C2C(=O)CC3)nc1` [Example 15.3A, (S)-6-(2,5-Dioxo-1-(3-(trifluoromethyl)phenyl)-2,3,4,5,6,7-hexahydro-1H-cyclopenta[d]pyrimidin-4-yl)nicotinonitrile], for which the negative logarithm of the IC50 (pIC50) is 7.50. Turning to `N#Cc1ccc([C@@H]2NC(=O)N(c3cccc(C(F)(F)F)c3)C3=C2C(=O)CC3)nc1` [Example 15.3B, (R)-6-(2,5-Dioxo-1-(3-(trifluoromethyl)phenyl)-2,3,4,5,6,7-hexahydro-1H-cyclopenta[d]pyrimidin-4-yl)nicotinonitrile], the pIC50 was 5.76.

On to `CS(=O)(=O)c1cc(C#N)ccc1[C@@H]1NC(=O)N(c2cccc(C(F)F)c2)C2=C1C(=O)CC2` [Example 15.4B, (R)-4-(1-(3-(Difluoromethyl)phenyl)-2,5-dioxo-2,3,4,5,6,7-hexahydro-1H-cyclopenta[d]pyrimidin-4-yl)-3-(methylsulfonyl)benzonitrile], for which the negative-log IC50 (pIC50) is 7.24.

As to `N#Cc1ccc(C2NC(=O)N(c3ccnc(C(F)(F)F)c3)C3=C2C(=O)CC3)cc1` (stereo not drawn) [Example 15.5, 4-(2,5-Dioxo-1-(2-(tri-fluoromethyl)pyridin-4-yl)-2,3,4,5,6,7-hexahydro-1H-cyclopenta[d]pyrimidin-4-yl)benzonitrile], the pIC50 was 6.96. In the case of `CC1CC2=C(C1=O)C(c1ccc(C#N)cc1)NC(=O)N2c1cccc(C(F)(F)F)c1` (stereo not drawn) [Example 15.7] it was 7.18. On to `CSc1cc(C#N)ccc1C1NC(=O)N(c2cccc(C(F)(F)F)c2)C2=C1C(=O)CC2` (stereo not drawn) [Example 16, 4-(2,5-Dioxo-1-(3-(trifluoromethyl)phenyl)-2,3,4,5,6,7-hexahydro-1H-cyclopenta[d]-pyrimidin-4-yl)-3-(methylthio)benzonitrile], for which the pIC50 is 7.83. Turning to `N#Cc1ccc(C2NC(=O)N(c3cccc(C(F)(F)F)c3)C3=C2C(=O)CC3)c(F)c1` (stereo not drawn) [Example 18, 4-(2,5-Dioxo-1-(3-(trifluoromethyl)phenyl)-2,3,4,5,6,7-hexahydro-1H-cyclopenta[d]-pyrimidin-4-yl)-3-fluorobenzonitrile], the negative logarithm of the IC50 (pIC50) was 7.35.

Consider `CC(C(=O)NCCO)N1C(=O)N(c2cccc(C(F)(F)F)c2)C2=C(C(=O)CC2)C1c1ccc(C#N)cc1` (stereo not drawn) [Example 20, 2-(4-(4-Cyanophenyl)-2,5-dioxo-1-(3-(trifluoromethyl)phenyl)-6,7-dihydro-1H-cyclopenta[d]pyrimidin-3(2H,4H,5H)-yl)-N-(2-hydroxyethyl)propanamide], for which the pIC50 is 8.04.

For `CS(=O)(=O)c1cc(C#N)ccc1C1C2=C(CCC2=O)N(c2cccc(C(F)(F)F)c2)C(=O)N1CC1CCOCC1` (stereo not drawn) [Example 24.5], the pIC50 was 8.77. In the case of `CS(=O)(=O)c1cc(C#N)ccc1C1C2=C(CCC2=O)N(c2cccc(C(F)(F)F)c2)C(=O)N1CCC1CCOCC1` (stereo not drawn) [Example 24.6] it was greater than 9.00; in that of `CN1C(=O)N(c2cccc(C(F)F)c2)C2=C(C(=O)CC2)C1c1ccc(C#N)cc1` (stereo not drawn) [Example 26, 4-(1-(3-(Difluoromethyl)phenyl)-3-methyl-2,5-dioxo-2,3,4,5,6,7-hexahydro-1H-cyclopenta[d]pyrimidin-4-yl)benzonitrile], 8.03. `Cc1cc(C#N)ccc1C1C2=C(CCC2=O)N(c2cccc(C(F)(F)F)c2)C(=O)N1C` (stereo not drawn) [Example 26.2]: the negative logarithm of the IC50 (pIC50) was 8.19. With `COc1cc(C#N)ccc1C1C2=C(CCC2=O)N(c2cccc(C(F)(F)F)c2)C(=O)N1C` (stereo not drawn) [Example 26.3], the negative-log IC50 (pIC50) was 8.02. For the compound `CN1C(=O)N(c2cccc(C(F)(F)F)c2)C2=C(C(=O)CC2)C1c1ccc(C#N)cc1Cl` (stereo not drawn) [Example 26.4], the pIC50 is 7.58.

Take `CN1C(=O)N(c2cccc(C(F)F)c2)C2=C(C(=O)CC2)[C@@H]1c1ccc(C#N)cc1` [Example 26B, (S)-4-(1-(3-(Difluoromethyl)phenyl)-3-methyl-2,5-dioxo-2,3,4,5,6,7-hexahydro-1H-cyclopenta[d]pyrimidin-4-yl)benzonitrile]: the pIC50 was 5.47. As to `CN1C(=O)N(c2cccc(C(F)F)c2)C2=C(C(=O)CC2)C1c1ccc(C#N)cc1S(C)(=O)=O` (stereo not drawn) [Example 27, 4-(1-(3-(Difluoromethyl)phenyl)-3-methyl-2,5-dioxo-2,3,4,5,6,7-hexahydro-1H-cyclopenta[d]pyrimidin-4-yl)-3-(methylsulfonyl)benzonitrile], the pIC50 is 8.72.

Regarding `CSc1cc(C#N)ccc1C1C2=C(CCC2=O)N(c2cccc(C(F)(F)F)c2)C(=O)N1C` (stereo not drawn) [Example 27.1, 4-(3-methyl-2,5-dioxo-1-(3-(trifluoromethyl)phenyl)-2,3,4,5,6,7-hexahydro-1H-cyclopenta[d]pyrimidin-4-yl)-3-(methylthio)benzonitrile], the pIC50 was 8.34. The result for `CN1C(=O)N(c2cccc(C(F)(F)F)c2)C2=C(C(=O)CC2)C1c1ccc(C#N)cc1Br` (stereo not drawn) [Example 27.2] reads 8.15; that for `CCS(=O)(=O)c1cc(C#N)ccc1C1C2=C(CCC2=O)N(c2cccc(C(F)(F)F)c2)C(=O)N1C` (stereo not drawn) [Example 27.3], 8.92; that for `CN1C(=O)N(c2ccnc(C(F)(F)F)c2)C2=C(C(=O)CC2)C1c1ccc(C#N)cc1` (stereo not drawn) [Example 28, 4-(3-Methyl-2,5-dioxo-1-(2-(trifluoromethyl)pyridin-4-yl)-2,3,4,5,6,7-hexahydro-1H-cyclopenta[d]pyrimidin-4-yl)benzonitrile], 7.44. Regarding `COC(=O)CCCS(=O)(=O)N1C(=O)N(c2cccc(C(F)(F)F)c2)C2=C(C(=O)CC2)C1c1ccc(C#N)cc1` (stereo not drawn) [Example 34, Methyl 4-(4-(4-Cyanophenyl)-2,5-dioxo-1-(3-(trifluoromethyl)phenyl)-6,7-dihydro-1H-cyclopenta[d]pyrimidin-3(2H,4H,5H)-ylsulfonyl)butanoate], the pIC50 is 8.49. For `CS(=O)(=O)N1C(=O)N(c2cccc(C(F)F)c2)C2=C(C(=O)CC2)C1c1ccc(C#N)cc1` (stereo not drawn) [Example 36, 4-(1-(3-(Difluoromethyl)phenyl)-3-(methylsulfonyl)-2,5-dioxo-2,3,4,5,6,7-hexahydro-1H-cyclopenta[d]pyrimidin-4-yl)benzonitrile], the pIC50 is 8.14. Turning to `CS(=O)(=O)c1cc(C#N)ccc1[C@@H]1C2=C(CCC2=O)N(c2cccc(C(F)(F)F)c2)C(=O)N1S(C)(=O)=O` [Example 37, 3-(Methylsulfonyl)-4-(3-(methylsulfonyl)-2,5-dioxo-1-(3-(trifluoromethyl)phenyl)-2,3,4,5,6,7-hexahydro-1H-cyclopenta[d]pyrimidin-4-yl)benzonitrile], the pIC50 was greater than 9.00. Take `Cc1cc(C#N)ccc1C1C2=C(CCC2=O)N(c2cccc(C(F)(F)F)c2)C(=O)N1S(C)(=O)=O` (stereo not drawn) [Example 37.1]: the negative-log IC50 (pIC50) was 8.43. Consider `CS(=O)(=O)c1cc(C#N)ccc1C1C2=C(CCC2=O)N(c2cccc(C(F)(F)F)c2)C(=O)N1S(C)(=O)=O` (stereo not drawn) [Example 37.3], for which the pIC50 was 8.72. In the case of `CS(=O)(=O)N1C(=O)N(c2cccc(C(F)(F)F)c2)C2=C(C(=O)CC2)C1c1ccc(C#N)cn1` (stereo not drawn) [Example 38.1] it was 7.42. Regarding `COc1cc(C#N)ccc1C1C2=C(CCC2=O)N(c2cccc(C(F)(F)F)c2)C(=O)N1S(C)(=O)=O` (stereo not drawn) [Example 38.2], the pIC50 was 7.47. On to `CS(=O)(=O)c1cc(C#N)ccc1C1C2=C(CCC2=O)N(c2ccnc(C(F)(F)F)c2)C(=O)N1S(C)(=O)=O` (stereo not drawn) [Example 39, 3-(Methylsulfonyl)-4-(3-(methylsulfonyl)-2,5-dioxo-1-(2-(trifluoromethyl)pyridin-4-yl)-2,3,4,5,6,7-hexahydro-1H-cyclopenta[d]pyrimidin-4-yl)benzonitrile], for which the pIC50 was 8.15.

For the compound `N#Cc1ccc(C2C3=C(CCC3=O)N(c3cccc(C(F)(F)F)c3)C(=O)N2C(N)=O)cc1` (stereo not drawn) [Example 40, 4-(4-Cyanophenyl)-2,5-dioxo-1-(3-(trifluoromethyl)phenyl)-4,5,6,7-tetrahydro-1H-cyclopenta[d]pyrimidine-3(2H)-carboxamide], the pIC50 was 8.66. `CC(C)(O)CNC(=O)N1C(=O)N(c2cccc(C(F)(F)F)c2)C2=C(C(=O)CC2)C1c1ccc(C#N)cc1` (stereo not drawn) [Example 41, 4-(4-Cyanophenyl)-N-(2-hydroxy-2-methylpropyl)-2,5-dioxo-1-(3-(trifluoromethyl)-phenyl)-4,5,6,7-tetrahydro-1H-cyclopenta[d]pyrimidine-3(2H)-carboxamide]: the pIC50 is 8.85. In the case of `CC(C)(O)CNC(=O)N1C(=O)N(c2cccc(C(F)(F)F)c2)C2=C(C(=O)CC2)[C@@H]1c1ccc(C#N)cc1` [Example 41B, (S)-4-(4-Cyanophenyl)-N-(2-hydroxy-2-methylpropyl)-2,5-dioxo-1-(3-(trifluoro-methyl)phenyl)-4,5,6,7-tetrahydro-1H-cyclopenta[d]pyrimidine-3(2H)-carboxamide], the pIC50 was 7.39.

`N#Cc1ccc(C2C3=C(CCC3=O)N(c3cccc(C(F)(F)F)c3)C(=O)N2C(=O)NC2CC[S+]([O-])CC2)cc1` (stereo not drawn) [Example 43, 4-(4-Cyanophenyl)-2,5-dioxo-N-(1-oxo-hexahydro-1λ^4-thiopyran-4-yl)-1-(3-(trifluoro-methyl)phenyl)-4,5,6,7-tetrahydro-1H-cyclopenta[d]pyrimidine-3(2H)-carboxamide]: the negative-log IC50 (pIC50) was greater than 9.00. `N#Cc1ccc(C2C3=C(CCC3=O)N(c3cccc(C(F)(F)F)c3)C(=O)N2C(=O)NC2CCS(=N)(=O)CC2)cc1` (stereo not drawn) [Example 44, 4-(4-Cyanophenyl)-2,5-dioxo-N-(1-imino-1-oxo-hexahydro-1λ^6-thiopyran-4-yl)-1-(3-(trifluoromethyl)phenyl)-4,5,6,7-tetrahydro-1H-cyclopenta[d]pyrimidine-3(2H)-carboxamide]: the pIC50 is greater than 9.00. As for `CS(=O)(=O)c1cc(C#N)ccc1[C@@H]1C2=C(CCC2=O)N(c2cccc(C(F)(F)F)c2)C(=O)N1C(=O)NCC#N` [Example 47.3], the pIC50 is greater than 9.00. For `CC(C)(CO)NC(=O)N1C(=O)N(c2cccc(C(F)(F)F)c2)C2=C(C(=O)CC2)[C@H]1c1ccc(C#N)cc1S(C)(=O)=O` [Example 47.14], the pIC50 is greater than 9.00.
